{"source": "patent US11884694B2", "about": "“Non-caloric sweeteners and methods for synthesizing” (Conagen Inc., priority 2014, dated 2024)", "origin": "cited, not measured here", "data": [{"conditions": "sweetness compared with sucrose", "values": [{"smiles": "C=C1C[C@@]23CC[C@H]4[C@@](C)(CCC[C@@]4(C)C(=O)O[C@@H]4O[C@H](CO)[C@@H](O)[C@H](O)[C@H]4O)[C@@H]2CC[C@]1(O[C@@H]1O[C@H](CO)[C@@H](O)[C@H](O)[C@H]1O[C@@H]1O[C@@H](C)[C@H](O)[C@@H](O)[C@H]1O)C3", "note": "[Dulcoside A]", "times sweeter than sucrose": "about 30 times"}, {"smiles": "C=C1C[C@@]23CC[C@H]4[C@@](C)(CCC[C@@]4(C)C(=O)O[C@@H]4O[C@H](CO)[C@@H](O)[C@H](O)[C@H]4O)[C@@H]2CC[C@]1(O[C@@H]1O[C@H](CO)[C@@H](O)[C@H](O[C@@H]2O[C@H](CO)[C@@H](O)[C@H](O)[C@H]2O)[C@H]1O[C@@H]1O[C@@H](C)[C@H](O)[C@@H](O)[C@H]1O)C3", "note": "[Rebaudioside C]", "times sweeter than sucrose": "40-60 times"}, {"smiles": "C=C1C[C@@]23CC[C@H]4[C@@](C)(CCC[C@@]4(C)C(=O)O[C@@H]4O[C@H](CO)[C@@H](O)[C@H](O)[C@H]4O)[C@@H]2CC[C@]1(O[C@@H]1O[C@H](CO)[C@@H](O)[C@H](O)[C@H]1O[C@@H]1O[C@H](CO)[C@@H](O)[C@H](O)[C@H]1O)C3", "note": "[stevioside, Stevioside]", "times sweeter than sucrose": "100-150 times"}]}]}
